For 13 compounds, % of control, % binding and % of inhibition results are on record in ChEMBL document CHEMBL5465560, “Selectivity Literature for EUbOPEN Chemogenomic Library” (2024).

For test [1], the target named is Homeodomain-interacting protein kinase 3 (Homo sapiens, UniProt Q9H422). The test is described as follows: Selectivity interaction (Kinase panel (Z-LYTE Assay)) EUB0001632a HIPK3. To be noted: at 10 µM.
Test [2] concerns the target Dual specificity protein kinase CLK4 (Homo sapiens, UniProt Q9HAZ1). The test is described as follows: Selectivity interaction (Ambit KINOMEscan and KiNATiv profiling in Jurkat cells) EUB0000090b CLK4. To be noted: at 1 µM. Format: cell-based.
Test [3] concerns Phosphatidylinositol 4,5-bisphosphate 3-kinase catalytic subunit alpha isoform (Homo sapiens), P42336 [Q546K]. As to conditions: at 10 µM.
Test [4] deals with Ephrin type-A receptor 2 (Homo sapiens) (UniProt P29317). To be noted: at 10 µM.
Test [5] deals with T1, Serine/threonine-protein kinase TAO2 (Homo sapiens) (UniProt Q9UL54).
T1 sequence (whole entry): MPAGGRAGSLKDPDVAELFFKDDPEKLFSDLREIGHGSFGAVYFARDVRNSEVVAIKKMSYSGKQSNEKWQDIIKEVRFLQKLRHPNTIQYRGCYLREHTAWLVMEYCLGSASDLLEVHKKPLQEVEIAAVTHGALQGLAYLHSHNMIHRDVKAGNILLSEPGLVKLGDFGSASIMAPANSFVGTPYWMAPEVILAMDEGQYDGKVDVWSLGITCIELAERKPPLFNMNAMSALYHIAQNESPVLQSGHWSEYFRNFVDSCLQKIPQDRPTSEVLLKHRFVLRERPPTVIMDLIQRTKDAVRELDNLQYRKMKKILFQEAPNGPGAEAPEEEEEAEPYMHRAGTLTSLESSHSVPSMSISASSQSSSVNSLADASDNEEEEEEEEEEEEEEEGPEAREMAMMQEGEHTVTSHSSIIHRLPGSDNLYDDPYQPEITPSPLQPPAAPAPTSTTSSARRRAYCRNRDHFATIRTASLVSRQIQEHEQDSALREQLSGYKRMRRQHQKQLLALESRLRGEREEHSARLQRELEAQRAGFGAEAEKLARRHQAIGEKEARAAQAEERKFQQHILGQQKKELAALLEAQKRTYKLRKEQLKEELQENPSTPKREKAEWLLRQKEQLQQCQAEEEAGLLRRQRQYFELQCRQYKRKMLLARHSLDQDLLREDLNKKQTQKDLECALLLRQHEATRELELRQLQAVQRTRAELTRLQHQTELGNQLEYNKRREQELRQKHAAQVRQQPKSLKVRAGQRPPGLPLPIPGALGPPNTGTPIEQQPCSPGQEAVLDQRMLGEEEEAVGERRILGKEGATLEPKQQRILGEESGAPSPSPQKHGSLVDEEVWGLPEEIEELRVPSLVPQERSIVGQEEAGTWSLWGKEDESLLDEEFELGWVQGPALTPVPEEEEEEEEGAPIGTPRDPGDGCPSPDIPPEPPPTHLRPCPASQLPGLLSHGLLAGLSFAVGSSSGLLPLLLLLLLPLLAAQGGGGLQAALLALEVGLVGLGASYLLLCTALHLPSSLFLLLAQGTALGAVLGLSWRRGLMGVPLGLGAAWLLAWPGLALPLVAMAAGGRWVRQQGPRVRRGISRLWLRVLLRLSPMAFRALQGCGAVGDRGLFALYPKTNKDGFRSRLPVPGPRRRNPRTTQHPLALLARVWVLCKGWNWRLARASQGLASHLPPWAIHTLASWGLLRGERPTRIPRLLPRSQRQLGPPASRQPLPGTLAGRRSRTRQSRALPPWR
Description: Selectivity interaction (KinomeScan (DiscoverX)) EUB0000666a TAOK2. As to conditions: at 10 µM.

Test [6] concerns the target Protein-tyrosine kinase 2-beta (Homo sapiens) (UniProt Q14289). Description: Selectivity interaction (KinomeScan (DiscoverX)) EUB0000229b PTK2B. As to conditions: at 10 µM.
In test [7] the target is Dual specificity protein kinase CLK1 (Homo sapiens, UniProt P49759). Description: Selectivity interaction (KinomeScan (DiscoverX)) EUB0000229b CLK1. As to conditions: at 10 µM.
In test [8] the target is Atypical kinase COQ8A, mitochondrial (Homo sapiens, UniProt Q8NI60). Description: Selectivity interaction (KinomeScan (DiscoverX)) EUB0001079a ADCK3. To be noted: at 1 µM.
The test system of test [9] is eIF-2-alpha kinase GCN2 (Homo sapiens), Q9P2K8 [S808G]. Description: Selectivity interaction (KinomeScan (DiscoverX)) EUB0001079a EIF2AK4. To be noted: at 1 µM.
For test [10], the target named is Calcium/calmodulin-dependent protein kinase type II subunit delta (Homo sapiens) (UniProt Q13557). The test is described as follows: Selectivity interaction (ActivX KiNativ screen (kinase selectivity in THP-1 cell lysates)) EUB0000639a CAMK2D. As to conditions: lysate, at 0.2 µM. The format is subcellular.
Test [11] concerns the target Dual specificity mitogen-activated protein kinase kinase 1 (Homo sapiens, UniProt Q02750). The test is described as follows: Selectivity interaction (Kinase panel (Invitrogen)) EUB0000639a MAP2K1. To be noted: at 200 nM.
The target in test [12] is Ribosomal protein S6 kinase alpha-6 (Homo sapiens, UniProt Q9UK32). To be noted: at 10 µM.
The target in test [13] is cAMP-dependent protein kinase catalytic subunit alpha (Homo sapiens, UniProt P17612). The test is described as follows: Selectivity interaction (Millipore kinase profiler) EUB0000124b PRKACA. As to conditions: at 10 µM.
The target in test [14] is Phosphatidylinositol 4,5-bisphosphate 3-kinase catalytic subunit gamma isoform (Homo sapiens) (UniProt P48736). The test is described as follows: Selectivity interaction (KinomeScan (DiscoverX)) EUB0000695a PIK3CG. To be noted: at 100 nM.
Test [15] has as its target Mitogen-activated protein kinase kinase kinase 21 (Homo sapiens) (UniProt Q5TCX8). The test is described as follows: Selectivity interaction (ProQinase) EUB0000171b MAP3K21.
Test [16] addresses RAF proto-oncogene serine/threonine-protein kinase (Homo sapiens) (UniProt P04049). The test is described as follows: Selectivity interaction (KinomeScan (DiscoverX)) EUB0000045b RAF1.

Mitogen-activated protein kinase kinase kinase 21 (Homo sapiens), sequence (Q5TCX8 whole entry): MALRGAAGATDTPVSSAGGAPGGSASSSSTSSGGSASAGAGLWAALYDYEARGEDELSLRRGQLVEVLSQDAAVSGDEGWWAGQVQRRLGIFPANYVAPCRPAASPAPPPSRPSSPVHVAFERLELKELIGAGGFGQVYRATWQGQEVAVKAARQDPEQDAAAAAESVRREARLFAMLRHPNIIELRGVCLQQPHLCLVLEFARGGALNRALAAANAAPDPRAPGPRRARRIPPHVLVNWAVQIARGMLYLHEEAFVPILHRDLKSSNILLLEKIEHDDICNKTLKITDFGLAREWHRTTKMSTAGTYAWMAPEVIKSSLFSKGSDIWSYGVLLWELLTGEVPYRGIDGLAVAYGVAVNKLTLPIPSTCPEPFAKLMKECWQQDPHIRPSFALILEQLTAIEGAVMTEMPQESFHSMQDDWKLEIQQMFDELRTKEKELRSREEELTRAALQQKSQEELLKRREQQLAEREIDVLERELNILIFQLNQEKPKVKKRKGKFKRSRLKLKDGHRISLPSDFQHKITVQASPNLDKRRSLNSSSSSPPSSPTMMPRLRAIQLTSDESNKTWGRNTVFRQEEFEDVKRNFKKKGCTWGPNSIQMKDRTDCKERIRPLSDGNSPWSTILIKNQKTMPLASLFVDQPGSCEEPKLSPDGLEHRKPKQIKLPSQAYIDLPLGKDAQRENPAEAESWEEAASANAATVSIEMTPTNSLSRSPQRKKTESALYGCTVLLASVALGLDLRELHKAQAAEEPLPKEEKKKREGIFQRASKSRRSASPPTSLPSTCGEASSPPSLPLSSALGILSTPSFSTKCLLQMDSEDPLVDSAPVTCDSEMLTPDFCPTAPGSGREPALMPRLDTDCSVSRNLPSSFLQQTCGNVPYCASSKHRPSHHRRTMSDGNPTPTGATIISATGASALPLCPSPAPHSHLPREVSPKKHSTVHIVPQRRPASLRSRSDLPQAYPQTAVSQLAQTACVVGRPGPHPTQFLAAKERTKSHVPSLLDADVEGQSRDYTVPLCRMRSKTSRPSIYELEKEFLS
RAF proto-oncogene serine/threonine-protein kinase (Homo sapiens), sequence (P04049 whole entry): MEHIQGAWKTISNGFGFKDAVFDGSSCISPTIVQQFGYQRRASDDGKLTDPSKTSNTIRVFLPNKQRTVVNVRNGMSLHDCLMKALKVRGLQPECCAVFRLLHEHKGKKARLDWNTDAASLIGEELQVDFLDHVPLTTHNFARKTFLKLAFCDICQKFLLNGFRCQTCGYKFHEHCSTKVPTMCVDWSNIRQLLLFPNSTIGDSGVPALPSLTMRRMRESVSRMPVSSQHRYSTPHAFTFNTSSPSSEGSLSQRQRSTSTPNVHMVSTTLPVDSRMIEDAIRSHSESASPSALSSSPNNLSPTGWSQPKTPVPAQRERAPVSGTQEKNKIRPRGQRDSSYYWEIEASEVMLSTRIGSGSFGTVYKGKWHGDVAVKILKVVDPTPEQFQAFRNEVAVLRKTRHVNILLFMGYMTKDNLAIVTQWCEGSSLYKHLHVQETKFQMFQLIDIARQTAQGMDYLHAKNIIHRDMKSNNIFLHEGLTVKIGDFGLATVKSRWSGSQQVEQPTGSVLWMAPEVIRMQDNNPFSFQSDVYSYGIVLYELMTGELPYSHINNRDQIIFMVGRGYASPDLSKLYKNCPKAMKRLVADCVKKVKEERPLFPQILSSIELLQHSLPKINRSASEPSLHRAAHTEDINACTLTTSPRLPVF
Phosphatidylinositol 4,5-bisphosphate 3-kinase catalytic subunit alpha isoform (Homo sapiens), P42336 [Q546K], sequence (P42336 whole entry Q546K, canonical isoform): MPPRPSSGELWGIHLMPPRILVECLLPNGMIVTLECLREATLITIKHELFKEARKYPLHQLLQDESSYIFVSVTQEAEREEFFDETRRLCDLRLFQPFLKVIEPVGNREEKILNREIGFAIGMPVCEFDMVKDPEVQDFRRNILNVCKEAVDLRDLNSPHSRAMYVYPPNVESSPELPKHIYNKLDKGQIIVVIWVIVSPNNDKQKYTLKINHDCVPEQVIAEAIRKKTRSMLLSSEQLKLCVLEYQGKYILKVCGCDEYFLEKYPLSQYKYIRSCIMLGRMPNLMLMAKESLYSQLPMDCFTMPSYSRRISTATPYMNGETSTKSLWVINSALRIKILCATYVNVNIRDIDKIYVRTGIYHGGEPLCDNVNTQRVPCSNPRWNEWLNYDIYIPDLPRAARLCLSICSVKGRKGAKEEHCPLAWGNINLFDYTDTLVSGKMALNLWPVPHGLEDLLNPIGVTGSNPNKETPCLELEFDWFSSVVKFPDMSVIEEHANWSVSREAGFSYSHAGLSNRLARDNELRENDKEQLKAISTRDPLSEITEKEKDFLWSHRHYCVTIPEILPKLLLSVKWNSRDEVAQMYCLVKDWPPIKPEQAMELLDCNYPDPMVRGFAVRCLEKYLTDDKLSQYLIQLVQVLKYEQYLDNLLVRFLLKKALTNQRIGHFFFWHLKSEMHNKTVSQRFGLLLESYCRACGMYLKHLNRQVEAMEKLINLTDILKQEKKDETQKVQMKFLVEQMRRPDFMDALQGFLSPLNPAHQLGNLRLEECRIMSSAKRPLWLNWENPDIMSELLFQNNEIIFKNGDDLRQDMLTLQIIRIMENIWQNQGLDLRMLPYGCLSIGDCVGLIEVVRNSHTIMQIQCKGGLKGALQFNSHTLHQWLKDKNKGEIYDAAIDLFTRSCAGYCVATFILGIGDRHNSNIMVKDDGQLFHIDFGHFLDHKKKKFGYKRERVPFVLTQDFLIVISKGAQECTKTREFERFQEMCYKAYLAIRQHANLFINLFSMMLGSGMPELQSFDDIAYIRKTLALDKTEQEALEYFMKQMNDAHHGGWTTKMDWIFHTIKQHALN
Phosphatidylinositol 4,5-bisphosphate 3-kinase catalytic subunit gamma isoform (Homo sapiens), sequence (P48736 whole entry, looked up, canonical isoform): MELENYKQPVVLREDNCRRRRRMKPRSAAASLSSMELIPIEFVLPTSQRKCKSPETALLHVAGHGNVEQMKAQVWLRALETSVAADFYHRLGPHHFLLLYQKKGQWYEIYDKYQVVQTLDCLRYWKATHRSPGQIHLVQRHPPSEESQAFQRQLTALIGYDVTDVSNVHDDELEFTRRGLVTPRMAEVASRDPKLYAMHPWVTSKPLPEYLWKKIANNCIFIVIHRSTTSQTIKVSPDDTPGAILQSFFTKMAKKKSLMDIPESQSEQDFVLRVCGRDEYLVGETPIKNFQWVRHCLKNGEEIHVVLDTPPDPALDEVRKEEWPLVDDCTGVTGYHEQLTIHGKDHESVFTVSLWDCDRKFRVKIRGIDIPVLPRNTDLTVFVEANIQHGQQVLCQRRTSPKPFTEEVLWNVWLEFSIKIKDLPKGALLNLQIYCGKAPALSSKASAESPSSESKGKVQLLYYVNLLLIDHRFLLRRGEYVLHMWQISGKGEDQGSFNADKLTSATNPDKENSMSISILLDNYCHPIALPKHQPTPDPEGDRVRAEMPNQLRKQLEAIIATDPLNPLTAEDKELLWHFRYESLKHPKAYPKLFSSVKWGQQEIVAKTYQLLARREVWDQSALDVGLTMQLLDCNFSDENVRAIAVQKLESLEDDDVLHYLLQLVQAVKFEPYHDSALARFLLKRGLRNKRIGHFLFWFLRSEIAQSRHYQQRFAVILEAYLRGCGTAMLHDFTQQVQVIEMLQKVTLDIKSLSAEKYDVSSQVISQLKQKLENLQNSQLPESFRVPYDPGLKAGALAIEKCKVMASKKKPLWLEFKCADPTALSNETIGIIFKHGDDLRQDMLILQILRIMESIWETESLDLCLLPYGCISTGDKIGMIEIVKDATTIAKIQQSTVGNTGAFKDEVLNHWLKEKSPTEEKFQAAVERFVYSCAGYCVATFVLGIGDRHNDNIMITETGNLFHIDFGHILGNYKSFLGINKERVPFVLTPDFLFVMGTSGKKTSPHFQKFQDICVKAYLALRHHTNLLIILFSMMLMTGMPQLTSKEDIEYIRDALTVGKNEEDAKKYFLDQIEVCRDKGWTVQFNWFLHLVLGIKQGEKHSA
Protein-tyrosine kinase 2-beta (Homo sapiens), sequence (Q14289 whole entry, looked up): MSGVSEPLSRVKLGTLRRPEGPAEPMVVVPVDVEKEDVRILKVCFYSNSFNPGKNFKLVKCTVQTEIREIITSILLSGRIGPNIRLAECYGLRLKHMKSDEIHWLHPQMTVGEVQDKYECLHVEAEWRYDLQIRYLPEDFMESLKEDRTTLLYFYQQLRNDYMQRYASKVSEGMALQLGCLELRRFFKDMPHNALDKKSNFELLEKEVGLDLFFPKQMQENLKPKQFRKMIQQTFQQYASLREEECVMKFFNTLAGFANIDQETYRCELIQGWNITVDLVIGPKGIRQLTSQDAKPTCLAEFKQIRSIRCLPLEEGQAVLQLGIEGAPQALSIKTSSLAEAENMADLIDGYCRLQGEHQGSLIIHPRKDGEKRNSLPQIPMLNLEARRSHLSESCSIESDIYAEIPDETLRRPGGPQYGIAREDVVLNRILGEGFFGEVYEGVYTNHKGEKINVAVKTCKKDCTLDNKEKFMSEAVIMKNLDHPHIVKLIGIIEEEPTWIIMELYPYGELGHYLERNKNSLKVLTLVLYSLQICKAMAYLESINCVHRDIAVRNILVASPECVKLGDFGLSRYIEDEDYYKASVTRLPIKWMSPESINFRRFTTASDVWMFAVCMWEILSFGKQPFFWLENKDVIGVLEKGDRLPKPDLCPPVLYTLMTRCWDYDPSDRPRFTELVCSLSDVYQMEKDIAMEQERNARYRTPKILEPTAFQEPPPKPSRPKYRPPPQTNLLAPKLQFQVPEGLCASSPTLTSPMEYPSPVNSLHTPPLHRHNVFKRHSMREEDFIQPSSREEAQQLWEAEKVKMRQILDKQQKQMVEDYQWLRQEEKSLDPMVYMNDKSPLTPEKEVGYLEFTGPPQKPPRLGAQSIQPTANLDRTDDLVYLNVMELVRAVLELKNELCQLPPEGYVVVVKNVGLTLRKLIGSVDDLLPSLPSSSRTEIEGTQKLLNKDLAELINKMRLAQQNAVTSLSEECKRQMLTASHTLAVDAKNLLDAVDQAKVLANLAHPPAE

Consider `Cn1cc(-n2cnc3c(NCc4nc5cc(Cl)c(Cl)cc5[nH]4)nc(N4CCOCC4)nc32)cn1`, for which the % of control in test [1] was 0.256%.
In turn, `CN(C)C/C=C/C(=O)Nc1ccc(C(=O)N2CCCC(Nc3ncc(Cl)c(-c4c[nH]c5ccccc45)n3)C2)cc1` (stereo not drawn) registered a % of control in test [2] of 73%.
In [3], `CNC(=O)Nc1ccc(-c2nc(N3CC4CCC(C3)O4)c3cnn(C4CCC5(CC4)OCCO5)c3n2)cc1` displayed a % of control of 11%.
In test [4], `Cc1cc([C@@H](C)Nc2ccccc2C(=O)O)c2nc(N3CCOCC3)cc(=O)n2c1` [AZD-6482] showed a % of control of 70%.
With `O=C(NOC[C@H](O)CO)c1ccc(F)c(F)c1Nc1ccc(I)cc1F`, the % of control in test [5] stood at 100%.
As to `COc1cc(N(C)c2ccnc3ccc(C(F)(F)F)cc23)cc(OC)c1OC`, the % binding came to 95% in [6] and 84% in test [7].
Regarding `Nc1cnc(N2CCc3cc(S(=O)(=O)Nc4c(F)cc(Cl)cc4F)cc(N4CCCC4=O)c32)nc1` [TP-020n], the % of control in test [8] and in [9] was 100% each time.
Take `CC[C@@H]1[C@H](F)C(=O)N[C@@H]1COc1nccc2cc(C(N)=O)c(OC)cc12` [ZIMLOVISERTIB]: the % of inhibition is 6.9% in test [10] and 9.31% in [11].
Take `CCN(CC)CCCCNc1ncc2cc(-c3cc(OC)cc(OC)c3)c(NC(=O)NC(C)(C)C)nc2n1`: in [12], the % of control was 100%.
On to `CC(=O)Nc1cccc(-n2c(=O)n(C3CC3)c(=O)c3c(Nc4ccc(I)cc4F)n(C)c(=O)c(C)c32)c1`, for which the % of control in [13] is 98%.
With `Cc1cc(F)c(C(=O)Nc2cccc(-c3nncn3C(C)C)n2)cc1-n1cnc(C2CC2)c1`, the % of control in test [14] stood at 100%.
For `C=CC(=O)Nc1cccc(C(=O)Nc2ccc(Nc3cc(-c4[nH]c(SC)nc4C)ccn3)cc2)c1`, the results for the % of control in test [15] (at 1 µM) and in test [15] (at 5 µM) were 81% and 59%, respectively.
For `C=CC(=O)Nc1cc(-n2c(=O)ccc3cnc4ccc(-c5ccc(NS(C)(=O)=O)cc5)cc4c32)ccc1C`, the % of control in test [16] (at 1 µM) and in test [16] (at 10 µM) was 100% in each case.
